Experimental data from patent publication US11512079B2, “Heterocycle substituted pyridine derivative antifungal agents” (Amplyx Pharmaceuticals, Inc., priority 2017, dated 2022).
Converted amounts (≈) assume the structure as drawn.

Experiments:
[1] = system: strains of C. neoformans and C. gattii; test: Activity vs Cryptococcus, summary over the strains tested; type: cell-based, Cryptococcus neoformans and Cryptococcus gattii; settings: C. neoformans H99 and C. gattii WM276 (Table 3)
Description: The activity of Gwt1 inhibitors against susceptible and FLC non-susceptible/resistant strains.
(§1) Isolates tested. C. neoformans strains H99, DUMC 118.00, DUMC 158.03 and C. gattii strains R272, and RSA-MW-3515 were obtained from Duke University. C. albicans 90028, A. fumigatus MYA3626, C. neoformans 14116, C. neoformans 76484 and the pathogenic Cryptococcus reference strains panel (ATCC MP-11) were obtained from American Type Culture Collection (ATCC, Manassas, Va., USA). The MP-11 panel consists of strains representing eight molecular types and three subtypes of C. neoformans and C. gattii.
Antifungal susceptibility testing. To establish antimicrobial activity, broth microdilution susceptibility testing was performed according to Clinical and Laboratory Standards Institute (CLSI) guidelines M27-A3 for yeasts and M38-A2 for molds. Compound 2 and analogs were first diluted in DMSO to obtain intermediate dilutions. These were further diluted in microtiter plates to obtain a final concentration of 2 to 0.002 μg/mL. 1 μl of DMSO was added to “No drug” control wells. The solutions were mixed on a plate shaker for 10 mins and plates incubated at 35° C. for 40 to 48 h (C. albicans, A. fumigatus) and 72 h (C. neoformans). The minimum concentration that led to 50% reduction in fungal growth as compared to the control (with the aid of a reading mirror) was determined as the minimum inhibitory concentration (MIC) for C. albicans and C. neoformans.

[2] = system: C. neoformans H99; test: Antifungal susceptibility testing, CLSI broth microdilution (Example 496/497); type: cell-based, Cryptococcus neoformans
Description: as §1
(§2) Antifungal susceptibility testing. To establish antimicrobial activity, broth microdilution susceptibility testing was performed according to Clinical and Laboratory Standards Institute (CLSI) guidelines M27-A3 for yeasts and M38-A2 for molds. Compound 2 and analogs were first diluted in DMSO to obtain intermediate dilutions. These were further diluted in microtiter plates to obtain a final concentration of 2 to 0.002 μg/mL. 1 μl of DMSO was added to “No drug” control wells. The solutions were mixed on a plate shaker for 10 mins and plates incubated at 35° C. for 40 to 48 h (C. albicans, A. fumigatus) and 72 h (C. neoformans). The minimum concentration that led to 50% reduction in fungal growth as compared to the control (with the aid of a reading mirror) was determined as the minimum inhibitory concentration (MIC) for C. albicans and C. neoformans. The minimum concentration that led to shortening of hyphae as compared to hyphal growth in DMSO control wells was determined as the minimum effective concentration (MEC) for A. fumigatus (as read for echinocandins). The use of the MIC and MEC endpoints for Compound 2 against yeasts and molds, respectively has been described previously.

[3] = system: C. neoformans strain H99; test: Murine model of cryptococcal meningitis, dosing in the presence of the pan-CYP inhibitor ABT, CD-1 mice; type: in vivo, Cryptococcus neoformans; settings: for reduction of CFU in brain vs untreated control / reduction of CFU in lung vs untreated control: preliminary experiment, 100 mg/kg ABT PO 2 h prior to each dose, n=5
Procedure: Efficacy of exemplary compounds in a murine model of cryptococcal meningitis when dosed in the presence of the pan-CYP inhibitor ABT. […] 100 mg/kg ABT was administered orally to male CD-1 mice 2 h prior to compound administration. Mice were injected with 6.9×10^4 CFU C. neoformans strain H99 per mouse via lateral tail vein at T=0 h. Treatment with each prodrug was initiated about 1 h post-infection by IP administration and continued daily for 7 days with 100 mg/kg ABT administered orally 2 h prior to each dose of compound. The mean log10 CFU/g brain and lung counts in untreated control mice were 7.83±0.09 and 4.67±0.88, respectively (FIG. 1).
[…] A 60 mg/kg dose QD without ABT was also evaluated as a control.
Cryptococcal meningitis model. C. neoformans strain H99 was grown in YPD broth at 30° C. on a shaker (220 rpm) for 24 h, centrifuged (1980 ref) and washed twice in PBS, resuspended in PBS, and quantified by hemacytometric count. CD-1 male mice were infected with ˜5×10^4 CFU per mouse via lateral tail vein injection of 100 μL. Mice were weighed, and treatment was within 1 h after infection. Treatments were administered daily for seven days. Mice were weighed daily and observed for acute and chronic adverse symptoms. Mice were sacrificed on day 8, and brain and left lung were homogenized and cultured for quantitative determination of tissue burden (CFU per gram of tissue). Tissues were homogenized for 25 seconds in […] phosphate buffered saline using two 6.5 mm steel beads and a Mini-Beadbeater 16 (Biospec Products, Inc., Bartlesville, Okla.), and serially diluted in 10-fold steps. Aliquots ([…]) of homogenate were plated and incubated for 3 to 7 days at 37° C. Fungal burden data were log10 transformed and evaluated using Kruskal-Wallis tests with Dunn's Multiple Comparison Test for Post-hoc analysis (Prism 5; GraphPad Software, Inc., San Diego, Calif.). A P value of ≤0.05 is considered statistically significant.

[4] = system: Cryptococcus gattii; test: In vitro antifungal assay (Example IX), microdilution broth, MIC; type: cell-based; settings: minimum inhibitory concentration (≥50% inhibition), 35° C., 72 h (Cryptococcus), RPMI1640
Procedure, shortened: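 Broth microdilution in RPMI1640 with 2.5×10^3 cells/mL inoculum; final compound concentrations were 2–0.0019 μg/mL, with 1% DMSO. Cryptococcus plates were incubated at 35 °C for 72 h, and growth was read at 600 nm to give the MIC.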

[5] = system: Aspergillus fumigatus MYA3626; test: In vitro antifungal assay (Example IX), microdilution broth, MEC; type: cell-based; settings: minimum effective concentration (shortening of hyphae), 35° C., 40-48 h, RPMI1640
Procedure, shortened: (§3)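 Spore suspensions of A. fumigatus and R. pusillus adjusted to 1-2×10^4 spores/mL in RPMI1640 and exposed to compound dilutions prepared in DMSO, by broth microdilution. MEC taken as the lowest concentration shortening hyphae versus DMSO control wells, read as for echinocandins.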

[6] = system: Rhizomucor pusillus 46342; test: as above; type: cell-based; settings: minimum effective concentration (shortening of hyphae), 35° C., 40-48 h, RPMI1640
Procedure, shortened: as §3

[7] = system: A. fumigatus MYA3626; test: Antifungal susceptibility testing, CLSI broth microdilution (Example 496/497); type: cell-based, Aspergillus fumigatus; settings: Aspergillus fumigatus, MYA3626; MEC, shortening of hyphae, 40 to 48 h; read-out: MIC or MEC A. fumigatus MYA3626
Description: as §1, §2

[8] = system: Candida albicans 90028; test: In vitro antifungal assay (Example IX), microdilution broth, MIC; type: cell-based; settings: minimum inhibitory concentration (≥50% inhibition), 35° C., 40-48 h, RPMI1640
Procedure, shortened: (§4)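 CLSI broth microdilution in RPMI1640 with 2.5×10^3 cells/mL and final compound concentrations of 2-0.0019 μg/mL (1% DMSO). C. albicans 90028 plates were incubated at 35° C. for 40-48 h and C. neoformans H99 for 72 h. MIC was read as minimum inhibitory concentration, verified at 600 nm.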

[9] = system: Cryptococcus neoformans H99; test: as above; type: cell-based; settings: minimum inhibitory concentration (≥50% inhibition), 35° C., 72 h, RPMI1640
Procedure, shortened: as §4

[10] = in the presence of ABT, 20 mg/kg Ex. 172 prodrug, 60 mg/kg Ex. 173 prodrug, 80 mg/kg Compound 1

SMILES: Nc1ncccc1-c1cc(Cc2ccc(Oc3cccc(F)n3)cc2)no1
- exposure, fold higher than the three other compounds (oral administration of prodrug with ABT): approximately 2 fold
- AUC, fold higher than the other compounds (prodrugs administered IP): approximately 2 fold
- fold lower MIC values compared to Compound 2 vs Cryptococcus [1]: 32 fold
- MIC ([2]; Cryptococcus neoformans, H99, 72 h, read-out: MIC C. neoformans H99): 0.008 µg/mL (≈ 0.0221 µM)
- fold improved anti-C. neoformans H99 activity compared to Compound 2 ([2]; from MIC values): 32 fold

SMILES: Nc1c(-c2cc(Cc3ccc(OCc4ccccc4)cc3)no2)ccc[n+]1COP(=O)([O-])O
- log10 CFU/g brain reductions at doses of similar AUC (approximately 80 μg·h/mL) [3, 10]: 1.45 log10 CFU/g
- log10 CFU/g lung reductions at doses of similar AUC (approximately 80 μg·h/mL) [3, 10]: 1.55 log10 CFU/g
- reduction of CFU in brain vs untreated control ([3]; 34 mg/kg QD IP 7 days): 1.66 log10 CFU/g
- reduction of CFU in lung vs untreated control ([3]; 34 mg/kg QD IP 7 days): 1.07 log10 CFU/g
- reduction of CFU in brain vs untreated control ([3]; 85 mg/kg QD IP 7 days): 2.72 log10 CFU/g
- reduction of CFU in lung vs untreated control ([3]; 85 mg/kg QD IP 7 days): 3.28 log10 CFU/g

SMILES: Nc1ncccc1-c1cc(Cc2ccc(Oc3cccc(F)n3)cc2)no1 [Ex. 111]
- MIC [4]: ≤ 0.01 µg/mL
- minimal effective concentration [5]: 0.01 to 0.1 µg/mL
- minimal effective concentration [6]: 0.1 to 1 µg/mL
- MIC [7]: 0.063 µg/mL (≈ 0.174 µM)
- MIC [8]: 0.01 to 0.1 µg/mL (≈ 0.0276 to 0.276 µM)
- MIC [9]: ≤ 0.01 µg/mL
